The subject of this assay is HCT-116. Description: Cytotoxicity against human HCT116 cells. Format: functional, cell-based.

Broadly, the IC50 is the concentration that inhibits the measured activity by half. Read a high IC50 as lower potency.

Consider `CO[C@H]1CC(=O)[C@H]2C[C@@]34SS[C@]5(C[C@@H]6C(=O)C[C@H](OC)[C@H](O)[C@@H]6N5C3=O)C(=O)N4[C@H]2[C@H]1O` [ROSTRATIN C], for which the half-inhibitory concentration (IC50) was found to be 1.6 µM. Compound `O=C1C[C@@H](S)[C@H](O)[C@H]2[C@@H]1C[C@@]13SS[C@]4(C[C@@H]5C(=O)C[C@@H](S)[C@H](O)[C@@H]5N4C1=O)C(=O)N23` [ROSTRATIN D] displayed an IC50 of 35 µM. Consider `O=C1CC[C@H](O)[C@H]2[C@@H]1C[C@@]13SS[C@]4(C[C@@H]5C(=O)CC[C@H](O)[C@@H]5N4C1=O)C(=O)N23` [ROSTRATIN B], for which inhibition was half-maximal at 4.4 µM (IC50). On to `O=C1N2[C@H]3[C@H](C[C@]24SS[C@]12C[C@H]1[C@@H]([C@@H](O)CC[C@@H]1O)N2C4=O)[C@@H](O)CC[C@@H]3O` [ROSTRATIN A], for which the half-inhibitory concentration (IC50) was determined as 9 µM.

(Values after ChEMBL document CHEMBL1148204, “Isolation and structure assignments of rostratins A-D, cytotoxic disulfides produced by the marine-derived fungus Exserohilum rostratum” (J Nat Prod, 2004).)
